Experimental data published in patent US20220306659A1, “COMPOUND INHIBITING AND INDUCING DEGRADATION OF EGFR AND ALK” (BEIJING TIDE PHARMACEUTICAL CO., LTD., priority 2019, published 2022).

Experiments:
[1] = biological target: Ba/F3(EGFR^Del19/T790M/C797S) cells (Homo sapiens, UniProt P00533, DEL746-750/T790M/C797S, cells depend on it); assay: Assay of activity on Ba/F3 cells (CTG, 72 h); type: cell-based; conditions: read-out: IC50 (nM) Ba/F3 (EGFR^Del19/T790M/C797S)
Experimental: (§1) (2) A compound stock solution was prepared, and then diluted 3× to obtain a compound dilution. 30 nL of the compound dilution was added to a 384-well plate by Echo (Labcyte, Echo550). The cells were incubated in an incubator at 37° C. and 5% CO2 for 72 h.
(§2) The percent inhibition rate (% inhibition) was calculated by the following formula
(§3) LUMcmpd: Luminescence value of assay compound.
(§4) LUMpositive: Average LUM value of positive drug at a concentration of 10 μM.
(§5) LUMvehicle. Average LUM value of negative control group without drug treatment.
(§6) The nonlinear regression curve (dose response-variable slope) between the value of inhibition rate (%) and the logarithm of compound concentration was fitted with graphpad prism 8.0, the effect dose curve of compound was drawn, and the IC50 value was calculated.
(§7) Y=Bottom+(Top−Bottom)/(1+1^((LogIC50−X)*HillSlope))
(§8) X-axis: logarithm of compound concentration; Y axis: inhibition rate ([…]).

[2] = biological target: Ba/F3(EGFR^L858R/T790M/C797S) cells (Homo sapiens, UniProt P00533, T790M/C797S/L858R, cells depend on it); assay: Assay of activity on Ba/F3 cells (CTG, 72 h); type: cell-based; conditions: read-out: IC50 (nM) Ba/F3 (EGFR^L858R/T790M/C797S)
Experimental: as §1, §2, §3, §4, §5, §6, §7, §8

Ba/F3(EGFR^Del19/T790M/C797S) cells, sequence (P00533 with tags, fused parts or gaps DEL746-750/T790M/C797S): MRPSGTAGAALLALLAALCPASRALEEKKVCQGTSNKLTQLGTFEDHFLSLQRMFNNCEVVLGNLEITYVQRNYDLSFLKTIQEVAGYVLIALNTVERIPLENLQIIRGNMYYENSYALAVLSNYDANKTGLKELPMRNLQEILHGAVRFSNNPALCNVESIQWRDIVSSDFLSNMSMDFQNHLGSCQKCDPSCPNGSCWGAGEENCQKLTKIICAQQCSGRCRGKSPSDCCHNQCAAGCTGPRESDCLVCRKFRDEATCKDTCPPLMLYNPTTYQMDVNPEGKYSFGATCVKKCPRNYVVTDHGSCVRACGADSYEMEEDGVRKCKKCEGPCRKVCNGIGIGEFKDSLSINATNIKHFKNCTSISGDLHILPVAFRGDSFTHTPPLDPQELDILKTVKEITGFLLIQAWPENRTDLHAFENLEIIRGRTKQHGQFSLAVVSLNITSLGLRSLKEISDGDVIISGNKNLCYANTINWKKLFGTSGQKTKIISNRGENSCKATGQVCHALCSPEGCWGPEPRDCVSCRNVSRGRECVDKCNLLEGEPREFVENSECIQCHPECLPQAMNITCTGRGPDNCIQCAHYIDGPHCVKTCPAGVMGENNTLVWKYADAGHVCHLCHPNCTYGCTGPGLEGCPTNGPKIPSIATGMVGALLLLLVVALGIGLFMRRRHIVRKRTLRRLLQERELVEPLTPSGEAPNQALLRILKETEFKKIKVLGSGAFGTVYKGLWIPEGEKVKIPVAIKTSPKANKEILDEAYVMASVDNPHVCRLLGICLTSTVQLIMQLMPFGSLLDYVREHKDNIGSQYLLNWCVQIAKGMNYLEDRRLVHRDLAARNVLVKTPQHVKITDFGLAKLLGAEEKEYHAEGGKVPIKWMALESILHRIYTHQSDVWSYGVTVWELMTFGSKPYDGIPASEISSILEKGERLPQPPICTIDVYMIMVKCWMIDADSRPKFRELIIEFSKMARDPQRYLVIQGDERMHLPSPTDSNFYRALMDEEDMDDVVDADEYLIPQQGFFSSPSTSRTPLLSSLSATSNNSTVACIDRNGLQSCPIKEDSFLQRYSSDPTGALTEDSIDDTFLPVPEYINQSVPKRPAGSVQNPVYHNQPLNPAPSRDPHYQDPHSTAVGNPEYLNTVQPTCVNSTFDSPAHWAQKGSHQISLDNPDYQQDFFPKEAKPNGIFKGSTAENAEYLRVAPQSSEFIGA
Ba/F3(EGFR^L858R/T790M/C797S) cells, sequence (P00533 whole entry T790M/C797S/L858R): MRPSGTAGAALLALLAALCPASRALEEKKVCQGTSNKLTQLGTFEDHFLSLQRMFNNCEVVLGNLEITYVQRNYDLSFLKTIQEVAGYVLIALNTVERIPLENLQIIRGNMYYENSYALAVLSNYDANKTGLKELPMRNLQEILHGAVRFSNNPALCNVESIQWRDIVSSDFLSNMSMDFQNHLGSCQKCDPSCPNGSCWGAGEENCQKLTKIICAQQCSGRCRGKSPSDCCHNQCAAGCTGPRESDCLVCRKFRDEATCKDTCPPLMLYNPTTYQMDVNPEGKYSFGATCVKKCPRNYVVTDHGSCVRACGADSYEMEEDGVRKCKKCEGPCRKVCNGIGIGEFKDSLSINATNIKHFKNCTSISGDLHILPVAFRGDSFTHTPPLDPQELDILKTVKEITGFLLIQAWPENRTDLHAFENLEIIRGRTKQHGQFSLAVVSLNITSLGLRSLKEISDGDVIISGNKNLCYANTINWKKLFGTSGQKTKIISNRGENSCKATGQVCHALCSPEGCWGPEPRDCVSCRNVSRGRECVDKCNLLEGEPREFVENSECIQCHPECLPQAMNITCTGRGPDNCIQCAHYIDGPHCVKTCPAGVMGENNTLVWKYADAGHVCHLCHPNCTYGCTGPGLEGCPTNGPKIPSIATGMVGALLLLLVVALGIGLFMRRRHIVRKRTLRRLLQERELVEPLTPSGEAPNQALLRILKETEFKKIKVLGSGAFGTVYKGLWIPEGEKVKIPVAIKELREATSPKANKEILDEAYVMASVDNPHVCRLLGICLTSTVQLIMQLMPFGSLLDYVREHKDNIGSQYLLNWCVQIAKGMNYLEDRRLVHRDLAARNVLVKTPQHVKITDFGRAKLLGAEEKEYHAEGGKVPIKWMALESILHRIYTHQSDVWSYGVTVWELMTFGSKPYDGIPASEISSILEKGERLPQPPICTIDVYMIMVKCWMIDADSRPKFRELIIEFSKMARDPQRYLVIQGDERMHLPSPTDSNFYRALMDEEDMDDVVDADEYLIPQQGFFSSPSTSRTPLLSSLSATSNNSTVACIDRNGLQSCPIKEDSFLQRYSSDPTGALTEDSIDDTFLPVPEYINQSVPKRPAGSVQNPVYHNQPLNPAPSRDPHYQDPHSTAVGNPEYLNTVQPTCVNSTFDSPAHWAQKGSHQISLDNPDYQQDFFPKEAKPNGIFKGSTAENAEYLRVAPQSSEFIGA

Structure (SMILES) | GI50 [1] [nM] | GI50 [2] [nM]
COc1cc(N2CCC(N3CCNCC3)CC2)ccc1Nc1ncc(Cl)c(Nc2ccccc2P(C)(C)=O)n1 [Compound A1-4, (2-((5-Chloro-2-((2-methoxy-4-(4-(piperazin-1-yl)piperidin-1-yl)phenyl)amino)pyrimidin-4-yl)amino)phenyl)dimethyl phosphorus oxide] | > 300 | > 300
COc1cc(N2CCC(N3CCN(CCCCCCCOC4CN(c5cccc6c5C(=O)N(C5CCC(=O)NC5=O)C6=O)C4)CC3)CC2)ccc1Nc1ncc(Cl)c(Nc2ccccc2P(C)(C)=O)n1 (stereo not drawn) [Compound C150, 4-(3-((7-(4-(1-(4-((5-chloro-4-((2-(dimethylphosphoryl)phenyl)amino)pyrimidin-2-yl)amino)-3-methoxyphenyl)piperidin-4-yl)piperazin-1-yl)heptyl)oxy)azetidin-1-yl)-2-(2,6-dioxopiperidin-3-yl)isoindoline-1,3-dione] |  | > 300
COc1cc(N2CCC3(CCN(CCOCC#Cc4cccc5c4CN(C4CCC(=O)NC4=O)C5=O)CC3)CC2)c(C)cc1Nc1ncc(Br)c(Nc2ccc3nccnc3c2P(C)(C)=O)n1 (stereo not drawn) [Compound C174, 3-(4-(3-(2-(9-(4-((5-bromo-4-((5-(dimethylphosphoryl)quinoxalin-6-yl)amino)pyrimidin-2-yl)amino)-5-methoxy-2-methylphenyl)-3,9-diazaspiro[5.5]undecan-3-yl)ethoxy)prop-1-yn-1-yl)-1-oxoisoindolin-2-yl)piperidine-2,6-dione] | 1 to 100 | 1 to 100
COc1cc(N2CCC(N3CCN(CCCCCn4cc(-c5cccc6c5CN(C5CCC(=O)NC5=O)C6=O)cn4)CC3)CC2)ccc1Nc1ncc(Cl)c(Nc2ccccc2P(C)(C)=O)n1 (stereo not drawn) [Compound C162, 3-(4-(1-(5-(4-(1-(4-((5-chloro-4-((2-(dimethylphosphoryl)phenyl)amino)pyrimidin-2-yl)amino)-3-methoxyphenyl)piperidin-4-yl)piperazin-1-yl)pentyl)-1H-pyrazol-4-yl)-1-oxoisoindolin-2-yl)piperidine-2,6-dione] | > 300 | > 300
COc1cc(N2CCC(N3CCN(CCCCCC#Cc4cc(C#N)cc5c4CN(C4CCC(=O)NC4=O)C5=O)CC3)CC2)ccc1Nc1ncc(Cl)c(Nc2ccccc2P(C)(C)=O)n1 (stereo not drawn) [Compound C204, 7-(7-(4-(1-(4-((5-chloro-4-((2-(dimethylphosphoryl)phenyl)amino)pyrimidin-2-yl)amino)-3-methoxyphenyl)piperidin-4-yl)piperazin-1-yl)hept-1-yn-1-yl)-2-(2,6-dioxopiperidin-3-yl)-3-oxoisoindoline-5-carbonitrile] | 1 to 100 | 
COc1cc(N2CCC(N3CCN(CCCCCOc4cccc5c4CN(C4CCC(=O)NC4=O)C5=O)CC3)CC2)c(C)cc1Nc1ncc(Br)c(Nc2ccc3nccnc3c2P(C)(C)=O)n1 (stereo not drawn) [Compound C246, 3-(4-((5-(4-(1-(4-((5-bromo-4-((5-(dimethylphosphoryl)quinoxalin-6-yl)amino)pyrimidin-2-yl)amino)-5-methoxy-2-methylphenyl)piperidin-4-yl)piperazin-1-yl)pentyl)oxy)-1-oxoisoindolin-2-yl)piperidine-2,6-dione] | 1 to 100 | 1 to 100
COc1cc(N2CCC(N3CCN(CCCCCCc4cccc5c4CN(C4CCC(=O)NC4=O)C5=O)CC3)CC2)ccc1Nc1ncc(Cl)c(Nc2ccccc2P(C)(C)=O)n1 (stereo not drawn) [Compound C238, 3-(4-(6-(4-(1-(4-((5-chloro-4-((2-(dimethylphosphoryl)phenyl)amino)pyrimidin-2-yl)amino)-3-methoxyphenyl)piperidin-4-yl)piperazin-1-yl)hexyl)-1-oxoisoindolin-2-yl)piperidine-2,6-dione] | 1 to 100 | 
COc1cc(N2CCC(N3CCN(CCCCc4cccc5c4CN(C4CCC(=O)NC4=O)C5=O)CC3)CC2)c(C)cc1Nc1ncc(Br)c(Nc2ccc3nccnc3c2P(C)(C)=O)n1 (stereo not drawn) [Compound C301, 3-(4-(4-(4-(1-(4-((5-bromo-4-((5-(dimethylphosphoryl)quinoxalin-6-yl)amino)pyrimidin-2-yl)amino)-5-methoxy-2-methylphenyl)piperidin-4-yl)piperazin-1-yl)butyl)-1-oxoisoindolin-2-yl)piperidine-2,6-dione] | 1 to 100 | 
COc1cc(N2CCC(N3CCN(CCCCCCCc4cccc5c4CN(C4CCC(=O)NC4=O)C5=O)CC3)CC2)ccc1Nc1ncc(Cl)c(Nc2ccccc2P(C)(C)=O)n1 (stereo not drawn) [Compound C245, 3-(4-(7-(4-(1-(4-((5-chloro-4-((2-(dimethylphosphoryl)phenyl)amino)pyrimidin-2-yl)amino)-3-methoxyphenyl)piperidin-4-yl)piperazin-1-yl)heptyl)-1-oxoisoindolin-2-yl)piperidine-2,6-dione] | 1 to 100 | 
COc1cc(N2CCC(N3CCN(CCOCC#Cc4cc(C(F)(F)F)cc5c4CN(C4CCC(=O)NC4=O)C5=O)CC3)CC2)ccc1Nc1ncc(Cl)c(Nc2ccccc2P(C)(C)=O)n1 (stereo not drawn) [Compound C200, 3-(4-(3-(2-(4-(1-(4-((5-chloro-4-((2-(dimethylphosphoryl)phenyl)amino)pyrimidin-2-yl)amino)-3-methoxyphenyl)piperidin-4-yl)piperazin-1-yl)ethoxy)prop-1-yn-1-yl)-1-oxo-6-(trifluoromethyl)isoindolin-2-yl)piperidine-2,6-dione] | 101 to 200 | 

Next, values leading:

GI50 [1] [nM] | GI50 [2] [nM] | Structure (SMILES)
1 to 100 | 1 to 100 | COc1cc(N2CCC(N3CCN(CCCCC#Cc4ccc(F)c5c4CN(C4CCC(=O)NC4=O)C5=O)CC3)CC2)ccc1Nc1ncc(Cl)c(Nc2ccccc2P(C)(C)=O)n1 (stereo not drawn) [Compound C244, 3-(4-(6-(4-(1-(4-((5-chloro-4-((2-(dimethylphosphoryl)phenyl)amino)pyrimidin-2-yl)amino)-3-methoxyphenyl)piperidin-4-yl)piperazin-1-yl)hex-1-yn-1-yl)-7-fluoro-1-oxoisoindolin-2-yl)piperidine-2,6-dione]
1 to 100 | 1 to 100 | COc1cc(N2CCC(N3CCN(CCCc4ccc(-c5ccc6c(c5)CN(C5CCC(=O)NC5=O)C6=O)cc4)CC3)CC2)ccc1Nc1ncc(Cl)c(Nc2ccccc2P(C)(C)=O)n1 (stereo not drawn) [Compound C235, 3-(5-(4-(3-(4-(1-(4-((5-chloro-4-((2-(dimethylphosphoryl)phenyl)amino)pyrimidin-2-yl)amino)-3-methoxyphenyl)piperidin-4-yl)piperazin-1-yl)propyl)phenyl)-1-oxoisoindolin-2-yl)piperidine-2,6-dione]
1 to 100 |  | COc1cc(N2CCC(N3CCN(CCCCCCc4cccc5c4CN(C4CCC(=O)NC4=O)C5=O)CC3)CC2)c(C)cc1Nc1ncc(Br)c(Nc2ccc3nccnc3c2P(C)(C)=O)n1 (stereo not drawn) [Compound C286, 3-(4-(6-(4-(1-(4-((5-bromo-4-((5-(dimethylphosphoryl)quinoxalin-6-yl)amino)pyrimidin-2-yl)amino)-5-methoxy-2-methylphenyl)piperidin-4-yl)piperazin-1-yl)hexyl)-1-oxoisoindolin-2-yl)piperidine-2,6-dione]
1 to 100 |  | COc1cc(N2CCC(N3CCN(CCCCCc4cccc5c4CN(C4CCC(=O)NC4=O)C5=O)CC3)CC2)c(C)cc1Nc1ncc(Br)c(Nc2ccc3nccnc3c2P(C)(C)=O)n1 (stereo not drawn) [Compound C285, 3-(4-(5-(4-(1-(4-((5-bromo-4-((5-(dimethylphosphoryl)quinoxalin-6-yl)amino)pyrimidin-2-yl)amino)-5-methoxy-2-methylphenyl)piperidin-4-yl)piperazin-1-yl)pentyl)-1-oxoisoindolin-2-yl)piperidine-2,6-dione]
1 to 100 |  | COc1cc(N2CCC(N3CCNCC3)CC2)c(C)cc1Nc1ncc(Br)c(Nc2ccc3nccnc3c2P(C)(C)=O)n1 [Compound C158-1]
